Experimental data reported in the NIST ThermoML archive (doi:10.1016/j.jct.2012.04.005).
Values joined by “and” are separate entries in the source; they are usually repeats but may differ in a detail not shown here. Equal entries are not always repeated.

Settings: isochoric method

CCOCC [diethyl ether]
Liquid
Settings | mass density
416.1 K | 534.6 kg/m3
425.19 K | 517.3 kg/m3
437.14 K | 485.2 kg/m3
450.6 K | 441.5 kg/m3
450.77 K | 440.8 kg/m3
459.61 K | 394.8 kg/m3
464.79 K | 348.2 kg/m3
466.12 K | 212.6 kg/m3
466.47 K | 310.8 kg/m3
466.66 K | 233.7 kg/m3
466.75 K | 296.7 kg/m3
466.8 K | 288.3 kg/m3
466.81 K | 278.7 kg/m3
466.82 K | 275.7 kg/m3
466.83 K | 255 kg/m3 and 260.7 kg/m3
466.85 K | 261.2 kg/m3

Settings | mass density [kg/m3]
416.3 K, 1625 kPa, Liquid | 534.6
416.83 K, 1747 kPa, Liquid | 534.6
416.93 K, 1693 kPa, Liquid | 534.6
417.26 K, 1783 kPa, Liquid | 534.6
418.11 K, 2014 kPa, Liquid | 534.6
420.91 K, 2770 kPa, Liquid | 534.6
421.09 K, 2823 kPa, Liquid | 534.6
422.05 K, 3084 kPa, Liquid | 534.6
425.27 K, 1926 kPa, Liquid | 517.3
425.69 K, 4074 kPa, Liquid | 534.6
425.75 K, 2146 kPa, Liquid | 517.3
425.83 K, 2193 kPa, Liquid | 517.3
425.96 K, 4149 kPa, Liquid | 534.6
426.06 K, 2271 kPa, Liquid | 517.3
426.78 K, 2602 kPa, Liquid | 517.3
427.43 K, 4552 kPa, Liquid | 534.6
432.78 K, 5984 kPa, Liquid | 534.6
432.99 K, 6050 kPa, Liquid | 534.6
433.93 K, 6306 kPa, Liquid | 534.6
437.48 K, 2381 kPa, Liquid | 485.2
437.61 K, 2392 kPa, Liquid | 485.2
437.68 K, 2382 kPa, Liquid | 485.2
437.79 K, 2430 kPa, Liquid | 485.2
438.72 K, 2616 kPa, Liquid | 485.2
438.85 K, 7649 kPa, Liquid | 534.6
439.14 K, 7729 kPa, Liquid | 534.6
439.97 K, 7955 kPa, Liquid | 534.6
445.62 K, 3997 kPa, Liquid | 485.2
445.85 K, 4046 kPa, Liquid | 485.2
446.57 K, 4191 kPa, Liquid | 485.2
448.81 K, 10345 kPa, Liquid | 534.6
449.04 K, 10408 kPa, Liquid | 534.6
449.96 K, 10662 kPa, Liquid | 534.6
450.97 K, 2954 kPa, Liquid | 441.5
450.98 K, 2969 kPa, Liquid | 440.8
451.08 K, 2998 kPa, Liquid | 440.8
451.17 K, 3017 kPa, Liquid | 440.8
451.49 K, 3039 kPa, Liquid | 441.5
451.69 K, 3088 kPa, Liquid | 441.5
452.31 K, 3185 kPa, Liquid | 440.8
452.82 K, 3254 kPa, Liquid | 441.5
459.55 K, 6842 kPa, Liquid | 485.2
459.83 K, 6900 kPa, Liquid | 485.2
460.03 K, 3345 kPa, Liquid | 394.8
460.23 K, 3396 kPa, Liquid | 394.8
460.36 K, 3392 kPa, Liquid | 394.8
460.5 K, 13585 kPa, Liquid | 534.6
460.64 K, 7064 kPa, Liquid | 485.2
460.64 K, 13628 kPa, Liquid | 534.6
461.45 K, 3512 kPa, Liquid | 394.8
461.55 K, 13877 kPa, Liquid | 534.6
461.58 K, 4562 kPa, Liquid | 441.5
461.85 K, 4602 kPa, Liquid | 441.5
461.98 K, 4645 kPa, Liquid | 440.8
462.66 K, 4726 kPa, Liquid | 441.5
463.06 K, 4812 kPa, Liquid | 440.8
465.09 K, 3597 kPa, Liquid | 348.2
465.58 K, 3635 kPa, Liquid | 348.2
465.68 K, 3649 kPa, Liquid | 348.2
465.84 K, 3662 kPa, Liquid | 348.2
466.13 K, 3555 kPa, Gas | 212.6
466.67 K, 3560 kPa, Gas | 233.7
466.68 K, 3578 kPa, Gas | 212.6
466.76 K, 3609 kPa, Liquid | 296.7
466.85 K, 3565 kPa, Gas | 260.7
466.87 K, 3577 kPa, Liquid | 275.7
466.88 K, 3561 kPa, Liquid | 261.2
466.88 K, 3641 kPa, Liquid | 310.8
466.89 K, 3586 kPa, Gas | 255
467.09 K, 3625 kPa, Liquid | 278.8
467.09 K, 3678 kPa, Liquid | 310.8
467.29 K, 3582 kPa, Liquid | 261.2
467.29 K, 3591 kPa, Gas | 233.7
467.29 K, 3602 kPa, Liquid | 275.7
467.29 K, 3605 kPa, Gas | 255
467.39 K, 3612 kPa, Gas | 255
467.47 K, 3597 kPa, Gas | 233.7
467.49 K, 3648 kPa, Liquid | 296.7
467.5 K, 3591 kPa, Liquid | 261.2
467.57 K, 3699 kPa, Liquid | 310.8
467.62 K, 3606 kPa, Gas | 260.7
467.69 K, 3637 kPa, Liquid | 288.3
467.96 K, 3736 kPa, Liquid | 310.8
468.29 K, 3629 kPa, Gas | 233.7
468.29 K, 3662 kPa, Gas | 255
468.39 K, 3632 kPa, Liquid | 261.2
468.52 K, 3635 kPa, Gas | 212.6
468.69 K, 3669 kPa, Gas | 260.7
468.69 K, 3721 kPa, Liquid | 278.8
468.69 K, 3780 kPa, Liquid | 310.8
468.83 K, 3719 kPa, Liquid | 278.8
468.94 K, 3681 kPa, Liquid | 275.7
469.49 K, 3681 kPa, Gas | 212.6
469.89 K, 3738 kPa, Liquid | 275.7
469.89 K, 3776 kPa, Liquid | 278.8
470.22 K, 4019 kPa, Liquid | 348.2
470.71 K, 16287 kPa, Liquid | 534.6
470.75 K, 3929 kPa, Liquid | 296.7
471.09 K, 16390 kPa, Liquid | 534.6
471.25 K, 9234 kPa, Liquid | 485.2
471.29 K, 4110 kPa, Liquid | 348.2
471.59 K, 9306 kPa, Liquid | 485.2
471.69 K, 16551 kPa, Liquid | 534.6
472.29 K, 9719 kPa, Liquid | 485.2
472.58 K, 4780 kPa, Liquid | 394.8
473.16 K, 3968 kPa, Liquid | 288.3
473.49 K, 4095 kPa, Liquid | 296.7
473.49 K, 4886 kPa, Liquid | 394.8
474.18 K, 4037 kPa, Liquid | 288.3
477.4 K, 7063 kPa, Liquid | 440.8
478.46 K, 7226 kPa, Liquid | 440.8
478.97 K, 10850 kPa, Liquid | 485.2
479.25 K, 10911 kPa, Liquid | 485.2
479.29 K, 4255 kPa, Liquid | 261.2
479.79 K, 4580 kPa, Liquid | 310.8
480.04 K, 11078 kPa, Liquid | 485.2
480.08 K, 4398 kPa, Liquid | 288.3
480.2 K, 11129 kPa, Liquid | 485.2
480.44 K, 4322 kPa, Liquid | 296.7
480.44 K, 11179 kPa, Liquid | 485.2
480.83 K, 4665 kPa, Liquid | 310.8
481.03 K, 4460 kPa, Liquid | 288.3
481.43 K, 11386 kPa, Liquid | 485.2
487.13 K, 6550 kPa, Liquid | 394.8
488.12 K, 6673 kPa, Liquid | 394.8
490.82 K, 9157 kPa, Liquid | 440.8
491.84 K, 9329 kPa, Liquid | 440.8
492.58 K, 13642 kPa, Liquid | 485.2
492.82 K, 13695 kPa, Liquid | 485.2
493.6 K, 13857 kPa, Liquid | 485.2
499.04 K, 6021 kPa, Liquid | 310.8
499.15 K, 8032 kPa, Liquid | 394.8
500.02 K, 6096 kPa, Liquid | 310.8
500.21 K, 8166 kPa, Liquid | 394.8
504.02 K, 15987 kPa, Liquid | 485.2
504.28 K, 16044 kPa, Liquid | 485.2
505.05 K, 16203 kPa, Liquid | 485.2
517.61 K, 10294 kPa, Liquid | 394.8
518.47 K, 10403 kPa, Liquid | 394.8
533.2 K, 12288 kPa, Liquid | 394.8
534.36 K, 12440 kPa, Liquid | 394.8
554.38 K, 14968 kPa, Liquid | 394.8
555.38 K, 15098 kPa, Liquid | 394.8
574.32 K, 17455 kPa, Liquid | 394.8
575.32 K, 17595 kPa, Liquid | 394.8
